Patent US10851097B2, “4,5,6,7-tetrahydro-1H-imidazo[4,5-c]pyridine and 1,4,5,6,7,8-hexahydroimidazo[4,5-d]azepine derivatives as janus kinase inhibitors” (Topivert Pharma Limited, priority 2015, dated 2020)
In brackets after ≈: the same amount, converted by molar mass. Read-outs that look alike come from different tables or passages of the source.

Tests used:
Jurkat cells = test: Cell cytotoxicity assay in Jurkat cells (assay (c)); assay type: cell-based, human; conditions: 24 h, propidium iodide, normalised to DMSO control
Method: (c) Cell Cytotoxicity Assay
1×10^5 Jurkat cells (immortalised human T lymphocytes) are added to the appropriate number of wells of a 96 well plate in 100 μL of media (RPMI supplemented with 10% foetal bovine serum). 1 μL of DMSO control (final concentration 1.0% v/v) or test compound (final concentration 20, 5 or 1 μg/mL) is added to the wells and incubated at 37° C., 5% CO2. After 24 hours, the plate is centrifuged at 1200 rpm for 3 minutes and the supernatant discarded. Cells are then resuspended in 150 μL (final concentration 7.5 μg/mL) of propidium iodide (PI) in PBS and incubated at 37° C., 5% CO2 for 15 minutes. After 15 minutes, cells are analysed by flow cytometry (BD accuri) using the FL3 window. The % viability is calculated as the % of cells that are PI negative in the test wells normalised to the DMSO control.

[1] = Solubility in fasted-state simulated colonic fluid (FaSSCoF) at pH 6.5; assay type: physicochemical; conditions: 25 °C, pH 6.5, fassgf or other biorelevant, thermodynamic from solid, pH 6.5, 25° C.
Method: The solubilities of compounds of the invention in FaSSCoF at pH 6.5 are determined using a modification of a previously-reported procedure (Vertzoni, M., et al. Pharm. Res. 2010, 27, 2187-2196). In place of the bile salt extract employed in the original procedure (which extract is no longer available), the modified procedure uses a mixture of sodium taurochlorate (0.15 g), glycocholic acid (0.15 g), ursodeoxycholic acid (0.05 g), cholic acid (0.05 g), and glycodeoxycholic acid (0.05 g). These five bile acids are ground together with a mortar and pestle to produce a fine white powder that is incorporated into the FaSSCoF, as outlined below.
Tris(hydroxymethyl)aminomethane (Tris; 0.275 g) and maleic acid (0.44 g) are dissolved in water (35 mL) to give a solution whose pH is adjusted to 6.5 by treatment with 0.5M NaOH (ca. 12 mL). The solution is then made up to 50 mL with water. A portion of this Tris/maleate buffer solution (ca. 25 mL) is added to a 0.5 L round-bottomed flask, before being treated with 0.00565 g of the bile acid mixture described above. Solutions of phosphatidylcholine (0.0111 g) in DCM (0.15 mL) and palmitic acid (0.0013 g) in DCM (0.15 mL) are added, then the organic solvent is evaporated off under reduced pressure at 40° C. until a clear solution, with no perceptible DCM odour, is achieved. The volume of the evaporated solution is adjusted to 50 mL by addition of the remainder of Tris/maleate buffer, then BSA (0.115 g) is added, before being dissolved by gentle agitation.
Test compounds are suspended in the pH 6.5 FaSSCoF medium to give a maximum final concentration of 2-10 mg/mL. The suspensions are equilibrated at 25° C. for 24 h, before being filtered through a glass fibre C filter. The filtrates are then diluted as appropriate for injection and quantification by HPLC with reference to a standard. Different volumes of the standard, diluted and undiluted sample solutions are injected and the solubilities are calculated using the peak areas determined by integration of the peak found at the same retention time as the principal peak in the standard injection.

[2] = tested on: CD3/IL2 stimulated PBMC cells; test: IFNγ release from CD3/IL2 stimulated PBMC cells (assay (a)); assay type: cell-based; conditions: Homo sapiens, CD3/IL2 stimulation, 48 h, ELISA
Method: (a) IFNγ Release from CD3/IL2 Stimulated PBMC Cells
PBMCs from healthy subjects are separated from whole blood using a density gradient (Lymphoprep, Axis-Shield Healthcare). Cells are added to a 96 well plate, and compound at the desired concentration added 2 hours prior to stimulation with a mixture of monoclonal antibody to CD3 (1 μg/ml, eBioscience) and human recombinant IL2 (10 ng/ml, Peprotech). After 48 hours incubation under normal tissue culture conditions, supernatants are collected and IFNγ release determined by Sandwich ELISA (Duo-set, R&D System). The IC50 is determined from the dose response curve.

[3] = Systemic pharmacokinetics and total colon tissue distribution after single oral administration in mice; assay type: in vivo, male C57BL/6 mice; conditions: oral 10 mg/kg
Method: Studies were conducted by Sai Life Sciences (Hinjewadi, Pune, India) to investigate the systemic pharmacokinetics and total colon tissue distribution of compounds of the invention following a single oral administration in male C57BL/6 mice.
A group of twenty four male mice were administered with a solution of test compound formulated at a dose of 10 mg/10 mL/kg in aqueous hydroxypropyl-β-cyclodextrin (20% w/v in water). Blood samples (approximately 60 μL) were collected from retro-orbital plexus of each mouse under light isoflurane anaesthesia such that the samples were obtained at 0.5, 1, 2, 4, 6, 8, 12 and 24 hr. The blood samples were collected from a set of three mice at each time point in a labeled micro centrifuge tube containing K2EDTA as anticoagulant. Plasma samples were separated by centrifugation at 4000 rpm for 10 min and stored below −70° C. until bioanalysis. After collection of blood sample, animals were humanely euthanized by carbon dioxide asphyxiation to collect total colon tissues. The colons were flushed with cold PBS (pH7.4) to remove contents. The total colon tissues were homogenized with cold PBS (pH7.4) of twice the weight of colon tissue and stored below −70° C. Total volume was three times the total colon tissue weights. All samples were processed for analysis by protein precipitation using acetonitrile and analyzed with a fit-for-purpose LC-MS/MS method. Pharmacokinetic parameters were calculated using the non-compartmental analysis tool of Phoenix WinNonlin® (Version 6.3).

[4] = Run 1, read-out: pH 6.5 FaSSCoF Solubility Run 1
[5] = Run 2, read-out: pH 6.5 FaSSCoF Solubility Run 2

Compound | % viability at 1 μg/mL (Jurkat cells) [%] | solubility thermodynamic at 24 h [1, 4] [µg/mL] | solubility thermodynamic at 24 h [1, 5] [µg/mL] | IC50 [2] [nM] | AUC(0-t) ([3]; male, C57BL/6, mouse, plasma, read-out: AUC0-24 h P (plasma)) [ng·h/mL] | Cmax ([3]; male, C57BL/6, mouse, plasma, read-out: Cmax P (plasma)) [ng/mL] | Cmax ([3]; male, C57BL/6, mouse, total colon tissue, total colon, read-out: Cmax C (total colon)) [ng/g] | AUC0-24 h C (total colon) ([3]; total colon)
CCc1cc(O)c(F)cc1-c1ccc2c(-c3nc4c([nH]3)CCN(C(=O)c3cnc(N(C)C5CCN(C)CC5)cn3)C4)n[nH]c2c1 [Example 1, (2-(6-(2-Ethyl-5-fluoro-4-hydroxyphenyl)-1H-indazol-3-yl)-1,4,6,7-tetrahydro-5H-imidazo[4,5-c]pyridin-5-yl)(5-(methyl(1-methylpiperidin-4-yl)amino)pyrazin-2-yl)methanone] | 14 | 10 (≈ 16.4 µM) | 10 (≈ 16.4 µM) | 22.6 | – | – | – | –
CCc1cc(O)c(F)cc1-c1ccc2c(-c3nc4c([nH]3)CCN(C(=O)c3cnc(N5CCC[C@H]5CO)cn3)C4)n[nH]c2c1 [Example 2(h), (S)-(2-(6-(2-ethyl-5-fluoro-4-hydroxyphenyl)-1H-indazol-3-yl)-1,4,6,7-tetrahydro-5H-imidazo[4,5-c]pyridin-5-yl)(5-(2-(hydroxymethyl)pyrrolidin-1-yl)pyrazin-2-yl)methanone] | 56 | 30 (≈ 51.5 µM) | 40 (≈ 68.7 µM) | 12.1 | – | – | – | –
CCc1cc(O)c(F)cc1-c1ccc2c(-c3nc4c([nH]3)CCN(C(=O)c3cnc(N(C)CCN5CCCS5(=O)=O)cn3)C4)n[nH]c2c1 [Example 2(v), (5-((2-(1,1-dioxidoisothiazolidin-2-yl)ethyl)(methyl)amino)pyrazin-2-yl)(2-(6-(2-ethyl-5-fluoro-4-hydroxyphenyl)-1H-indazol-3-yl)-6,7-dihydro-1H-imidazo[4,5-c]pyridin-5(4H)-yl)methanone] | 82 | – | – | 7.5 | – | – | – | –
CCc1cc(O)c(F)cc1-c1ccc2c(-c3nc4c([nH]3)CCN(C(=O)c3cnc(N5CCCCC5)cn3)C4)n[nH]c2c1 [Reference Compound, reference compound] | 49 | 6 (≈ 10.6 µM) | 6 (≈ 10.6 µM) | 81.3 | 368 | 114 | 3230 | 43,739 h · ng/g
